According to patent US20230174507A1, “IMIDAZOLE 3-OXIDE DERIVATIVE BASED ACSS2 INHIBITORS AND METHODS OF USE THEREOF” (METABOMED LTD., priority 2020, published 2023):

Assays:
human ACSS2 protein = target: T1, human ACSS2 protein (Homo sapiens, UniProt Q9NR19); test: ACSS2 cell-free activity assay (pyrophosphatase-coupled, Biomol green); conditions: 10 nM human ACSS2, 90 minutes at 37 C, absorbance at 620 nm; read-out: ACSS2 Biochemical IC50
T1 construct: purchased OriGene Technologies, Inc
Method in brief: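 10 nM human ACSS2 incubated 90 min at 37 C with compound, 300 μM ATP, 10 μM CoA, 5 mM NaAc in pH 7.5 Hepes buffer with 0.5 U/ml pyrophosphatase. Released phosphate detected with Biomol Green at 620 nm; IC50 by non-linear regression constrained to 0% and 100%.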

human ACSS1 protein = target: T2, human ACSS1 protein (Homo sapiens, UniProt Q9NUB1); test: ACSS1 cell-free activity assay (pyrophosphatase-coupled, Biomol green); format: biochemical; conditions: 5 nM human ACSS1, 30 minutes at room temperature, absorbance at 620 nm; for IC50: read-out: ACSS1 Biochemical IC50
T2 construct: purchased MyBioSource
T2 sequence (Q9NUB1 38-689): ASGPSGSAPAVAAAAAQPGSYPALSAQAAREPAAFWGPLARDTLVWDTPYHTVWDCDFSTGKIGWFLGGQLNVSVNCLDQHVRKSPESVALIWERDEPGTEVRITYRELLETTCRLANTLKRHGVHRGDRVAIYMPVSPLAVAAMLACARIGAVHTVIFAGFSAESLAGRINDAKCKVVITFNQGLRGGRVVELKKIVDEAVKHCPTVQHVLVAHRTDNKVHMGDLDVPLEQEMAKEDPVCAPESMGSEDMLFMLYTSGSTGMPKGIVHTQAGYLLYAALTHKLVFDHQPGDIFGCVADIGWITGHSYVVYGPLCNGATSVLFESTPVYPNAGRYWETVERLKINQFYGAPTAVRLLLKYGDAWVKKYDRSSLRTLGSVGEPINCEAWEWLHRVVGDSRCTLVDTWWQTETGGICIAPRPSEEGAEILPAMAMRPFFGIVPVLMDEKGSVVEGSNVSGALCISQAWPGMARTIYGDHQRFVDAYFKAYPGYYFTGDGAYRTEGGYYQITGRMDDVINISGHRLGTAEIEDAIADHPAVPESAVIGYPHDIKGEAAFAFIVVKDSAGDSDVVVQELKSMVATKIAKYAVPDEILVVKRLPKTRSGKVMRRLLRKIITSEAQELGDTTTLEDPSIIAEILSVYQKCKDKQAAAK
Method in brief: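 5 nM human ACSS1 incubated 30 min at RT with compound in pH 7.5 Hepes buffer with 15 μM CoA, 5 mM acetate, 300 μM ATP, 2 mM MgCl2 and pyrophosphatase. Released phosphate detected with Biomol Green (30 min), absorbance 620 nm. IC50 from constrained non-linear regression.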

[1] = target: T3, ACSS2 in MDA-MB-468 cells (Homo sapiens, UniProt Q9NR19); test: Cellular fatty-acid IC50: 13C-acetate incorporation into fatty acids (palmitate), LC-MS; format: cell-based; conditions: hypoxic conditions (1% O2), 75% charcoal stripped serum, 5 hours, 13C-acetate into palmitate, read-out: Cellular Fatty-acid IC50 High Serum MDA468
T3 construct: endogenous in cells; host or cells: MDA-MB-468 cells, hypoxia (1% O2)
T3 sequence (Q9NR19 whole entry): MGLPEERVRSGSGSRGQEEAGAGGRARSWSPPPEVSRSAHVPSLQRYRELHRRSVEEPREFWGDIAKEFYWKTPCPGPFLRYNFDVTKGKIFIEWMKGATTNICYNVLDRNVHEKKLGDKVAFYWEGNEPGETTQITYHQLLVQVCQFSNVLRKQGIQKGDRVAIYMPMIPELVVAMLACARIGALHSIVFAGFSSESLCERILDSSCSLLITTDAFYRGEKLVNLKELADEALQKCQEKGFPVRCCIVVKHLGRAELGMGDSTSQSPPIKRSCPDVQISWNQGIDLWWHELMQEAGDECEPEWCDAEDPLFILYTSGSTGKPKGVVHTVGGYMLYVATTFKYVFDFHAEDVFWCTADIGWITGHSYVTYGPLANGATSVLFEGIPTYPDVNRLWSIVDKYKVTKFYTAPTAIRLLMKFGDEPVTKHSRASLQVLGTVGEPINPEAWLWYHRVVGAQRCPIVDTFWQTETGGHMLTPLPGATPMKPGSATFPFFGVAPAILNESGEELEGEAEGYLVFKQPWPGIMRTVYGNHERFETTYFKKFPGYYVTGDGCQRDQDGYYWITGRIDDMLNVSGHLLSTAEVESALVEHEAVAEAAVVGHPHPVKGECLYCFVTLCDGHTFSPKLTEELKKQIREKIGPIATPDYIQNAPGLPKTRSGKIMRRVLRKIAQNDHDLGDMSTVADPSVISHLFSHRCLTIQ
Method in brief: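 MDA-MB-468 cells under hypoxia (1% O2) treated 5 h with compound (0.000512-1000 nM) in medium with 75% charcoal-stripped serum and 0.5 mM 13C-acetate. 13C-palmitate quantified by LC-MS (negative ion, RSIM). IC50 from inhibition versus no-compound control, background-subtracted, constrained 0–100% nonlinear fit.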

T1 sequence (Q9NR19 whole entry): as above

Row | Structure (SMILES) | IC50 (human ACSS2 protein) | ACSS1 Biochemical IC50 (nM) (human ACSS1 protein) | IC50 [1] | IC50 (human ACSS1 protein)
1 | COc1ccc(-c2[nH]c(C)c(C(=O)Nc3cccc(S(=O)(=O)N(C)C)c3)[n+]2[O-])cc1-c1c(C)cccc1C [Compound 179, 4-((3-(N,N-dimethylsulfamoyl)phenyl)carbamoyl)-2-(6-methoxy-2′,6′-dimethyl-[1,1′-biphenyl]-3-yl)-5-methyl-1H-imidazole 3-oxide] | 1 to 30 nM | Inactive | > 50 nM | –
2 | CCC(F)(F)c1cccc(NC(=O)c2c(C)[nH]c(-c3cc(C)cc(-c4c(C)cccc4C)c3)[n+]2[O-])c1 [Compound 106, 4-((3-(1,1-difluoropropyl)phenyl)carbamoyl)-5-methyl-2-(2′,5,6′-trimethyl-[1,1′-biphenyl]-3-yl)-1H-imidazole 3-oxide] | < 1 nM | Inactive | > 50 nM | –
3 | CNc1cc(-c2c(C)cccc2C)cc(-c2[nH]c(C)c(C(=O)Nc3cccc(C(F)(F)C4CC4)c3)[n+]2[O-])c1 [Compound 147, 4-((3-(cyclopropyldifluoromethyl)phenyl)carbamoyl)-2-(2′,6′-dimethyl-5-(methylamino)-[1,1′-biphenyl]-3-yl)-5-methyl-1H-imidazole 3-oxide] | 1 to 30 nM | Inactive | 20 to 50 nM | –
4 | CCC(F)(F)c1cccc(NC(=O)c2c(C)[nH]c(-c3cc(CCN4CCOCC4)c(OC)c(-c4c(C)cccc4C)c3)[n+]2[O-])c1 [Compound 192, 4-((3-(1,1-difluoropropyl)phenyl)carbamoyl)-2-(6-methoxy-2′,6′-dimethyl-5-(2-morpholinoethyl)-[1,1′-biphenyl]-3-yl)-5-methyl-1H-imidazole 3-oxide] | < 1 nM | – | 20 to 50 nM | > 30 nM
5 | Cc1cncc(C)c1-c1cc(-c2[nH]c(C)c(C(=O)Nc3cccc(C(F)(F)C4CC4)c3)[n+]2[O-])ccc1OC(F)F [Compound 115, 4-((3-(cyclopropyldifluoromethyl)phenyl)carbamoyl)-2-(4-(difluoromethoxy)-3-(3,5-dimethylpyridin-4-yl)phenyl)-5-methyl-1H-imidazole 3-oxide] | < 1 nM | Inactive | < 20 nM | –
6 | Cc1cccc(C)c1-c1cc(OCCN2CCCC2)cc(-c2[nH]c(C)c(C(=O)Nc3cccc(C(F)(F)C4CC4)c3)[n+]2[O-])c1 [Compound 183, 4-((3-(cyclopropyldifluoromethyl)phenyl)carbamoyl)-2-(2′,6′-dimethyl-5-(2-(pyrrolidin-1-yl)ethoxy)-[1,1′-biphenyl]-3-yl)-5-methyl-1H-imidazole 3-oxide] | < 1 nM | Inactive | > 50 nM | –
7 | CNC(=O)c1cccc(NC(=O)c2c(C)[nH]c(-c3ccc(OC)c(-c4c(C)cc(F)cc4C)c3)[n+]2[O-])c1 [Compound 185, 2-(4′-fluoro-6-methoxy-2′,6′-dimethyl-[1,1′-biphenyl]-3-yl)-5-methyl-4-((3-(methylcarbamoyl)phenyl)carbamoyl)-1H-imidazole 3-oxide] | < 1 nM | – | < 20 nM | > 30 nM
8 | COc1ccc(-c2[nH]c(C)c(C(=O)Nc3cccc(-c4ncon4)c3)[n+]2[O-])cc1-c1c(C)cccc1C [Compound 190, 4-((3-(1,2,4-oxadiazol-3-yl)phenyl)carbamoyl)-2-(6-methoxy-2′,6′-dimethyl-[1,1′-biphenyl]-3-yl)-5-methyl-1H-imidazole 3-oxide] | < 1 nM | Inactive | < 20 nM | –
9 | Cc1cccc(C)c1-c1cc(F)cc(-c2[nH]c(C)c(C(=O)Nc3cccc(C(F)(F)C4CC4)c3)[n+]2[O-])c1 [Compound 129, 4-((3-(cyclopropyldifluoromethyl)phenyl)carbamoyl)-2-(5-fluoro-2′,6′-dimethyl-[1,1′-biphenyl]-3-yl)-5-methyl-1H-imidazole 3-oxide] | < 1 nM | Inactive | > 50 nM | –
